# Key:
# Fak [1] = target: T1, Fak (Homo sapiens, UniProt Q05397); test: Kinase activity assay (Reaction Biology Corp.); format: biochemical; set-up: purchased Reaction Biology Corp. (contract assay service); conditions: 10 μM ATP, n = 2
# Procedure: Reactions were carried out at 10 μM ATP. IC50 values were calculated using Prism 7.0 (GraphPad).
# Fak [2] = target: T1, Fak; test: Fak degradation, immunoblotting in PC3 cells; format: cell-based; conditions: PC3 cells, 24 hour treatment; for Dmax: PC-3, degradation maximum, n = 3
# Procedure: PC3 cells were cultured in F12-K (Kaighn's Modification of Ham's F-12 Medium), supplemented with 10% fetal bovine serum (FBS) and 1% penicillin-streptomycin at 37° C. and 5% CO2.
# If not indicated otherwise, cells were seeded and grown to 80% confluency and were treated with compound or control for 24 hours. […] After 20 minutes the mixture was spun down at 16,000×g for 10 minutes at 4° C. to pellet insoluble materials. Protein concentration of supernatants were determined via BCA assay (Thermo Fisher) before addition of NuPAGE sample buffer containing 5% β-Me and boiling at 95° C. for 10 minutes. Equal amounts of protein were subjected to SDS-PAGE and subsequent electrophoretic transfer onto nitrocellulose membrane. […] Immunoblots were developed using enhanced chemiluminescence and visualized using a Bio-Rad Chemi-Doc MP Imaging System and quantitated with Image Lab v.5.2.1 software (Bio-Rad Laboratories). Data analysis and statistics was performed using Prism 7.0 (GraphPad).
# Examination of Target Protein (Fak) Degradation.
# [3] = Pharmacokinetics of intraperitoneal or intravenous injection in CD1 mice; format: in vivo
# Procedure: The pharmacokinetics of exemplary compounds 103, 107, 100, 101, and 102 was examined for intraperitoneal and intravenous administration. The desired serial concentrations of working solutions were achieved by diluting stock solution (1 mg/mL in DMSO) of analyte with methanol. In particular, 20 μL of working solutions (1, 2, 5, 10, 50, 100, 500, 1000, 2000 ng/mL) were added to 20 μL of the blank CD1 mice plasma to achieve calibration standards of 1-2000 ng/mL (1, 2, 5, 10, 50, 100, 500, 1000, 2000 ng/mL) in a total volume of 40 μL. Dose of IV and IP were diluted by 1000 fold and 10000 with methanol, 20 μL of the diluted dose solutions were added to 20 μL of the blank CD1 mice plasma to achieve dose samples. Next, 40 μL standards and 40 μL dose samples were added to 20 μL of IS (100 ng/mL) and 200 μL of acetonitrile for precipitating protein respectively. Then the samples were vortexed for 30 seconds. After centrifugation at 4 degree Celsius, 4000 rpm for 15 minutes, the supernatant was diluted 3 times with water. 10 μL of the diluted supernatant was injected into the LC/MS/MS system for quantitative analysis.
# Exemplary compounds 103, 107, 100, 101, and 102 were administered intravenously (5 second injection of 10% HP-b-CD and 40 mM sodium acetate and 40 mM NaCl in water, pH4.5) or intraperitoneally (5% EtOH and 5% Solutol HS15 in D5W(ESD-2)) to 6-8 week old male CD1 mice (3 mice per treatment group for a total of 12 mice) at the time points indicated below in Table 7. The mice had free access to food and water.
# Dorsal metatarsal vein samples (30 μL), except that the final sample was acquired via a heart puncture, were taken from the mice at the same the administration time points as shown in Table 7.
# T1 sequence (Q05397 whole entry): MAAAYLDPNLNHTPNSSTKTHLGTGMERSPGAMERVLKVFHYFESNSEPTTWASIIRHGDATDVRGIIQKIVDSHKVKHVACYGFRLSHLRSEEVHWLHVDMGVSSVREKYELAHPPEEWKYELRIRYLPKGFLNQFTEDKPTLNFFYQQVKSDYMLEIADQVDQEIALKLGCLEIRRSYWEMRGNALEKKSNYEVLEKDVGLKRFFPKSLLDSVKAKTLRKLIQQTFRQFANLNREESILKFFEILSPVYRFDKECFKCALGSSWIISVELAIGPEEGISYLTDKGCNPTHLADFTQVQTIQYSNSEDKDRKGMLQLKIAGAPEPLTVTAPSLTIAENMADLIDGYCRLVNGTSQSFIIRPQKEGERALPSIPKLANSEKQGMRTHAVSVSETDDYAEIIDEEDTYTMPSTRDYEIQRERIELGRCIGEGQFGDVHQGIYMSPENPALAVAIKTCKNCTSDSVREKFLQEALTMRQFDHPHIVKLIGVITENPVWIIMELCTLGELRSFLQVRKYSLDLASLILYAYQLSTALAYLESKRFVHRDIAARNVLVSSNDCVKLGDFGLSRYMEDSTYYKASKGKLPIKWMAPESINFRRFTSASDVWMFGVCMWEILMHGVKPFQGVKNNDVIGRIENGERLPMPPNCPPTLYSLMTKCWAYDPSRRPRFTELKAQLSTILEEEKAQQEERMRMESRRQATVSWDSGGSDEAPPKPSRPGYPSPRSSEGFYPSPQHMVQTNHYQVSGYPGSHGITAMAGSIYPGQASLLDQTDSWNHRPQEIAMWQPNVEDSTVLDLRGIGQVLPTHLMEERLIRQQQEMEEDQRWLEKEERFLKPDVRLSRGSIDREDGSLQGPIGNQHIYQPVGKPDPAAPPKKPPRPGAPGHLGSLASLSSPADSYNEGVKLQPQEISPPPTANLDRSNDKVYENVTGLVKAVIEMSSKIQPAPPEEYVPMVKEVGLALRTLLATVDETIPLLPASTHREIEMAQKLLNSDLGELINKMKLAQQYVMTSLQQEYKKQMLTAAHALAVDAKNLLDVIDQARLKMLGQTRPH
Molecule,IC50 (Fak [1]) [nM],Dmax (Fak [2]) [%],DC50 (Fak [2]; half-maximal degradation concentration) [nM],Fak degradation / effect on Fak levels (in words) (Fak [2]),AUClast (h * ng/mL) IP ([3]; IP) [ng·h/mL],T ½ (h) IP ([3]; IP) [h],AUClast (h * ng/mL) IV ([3]; IV) [ng·h/mL],T ½ (h) IV ([3]; IV) [h]
"Cc1ncsc1-c1ccc(CNC(=O)[C@@H]2C[C@@H](O)CN2C(=O)[C@@H](NC(=O)CCOCCOCCOCCOCCOc2ccc(Nc3ncc(C(F)(F)F)c(NCc4cccc(N(C)S(C)(=O)=O)c4)n3)cc2)C(C)(C)C)cc1 [Compound 105, (2S,4R)-1-((S)-17-(tert-butyl)-1-(4-((4-((3-(N-methylmethylsulfonamido)benzyl)amino)-5-(trifluoromethyl)pyrimidin-2-yl)amino)phenoxy)-15-oxo-3,6,9,12-tetraoxa-16-azaoctadecan-18-oyl)-4-hydroxy-N-(4-(4-methylthiazol-5-yl)benzyl)pyrrolidine-2-carboxamide]",6.1 ± 0.1,91,48.1,,,,,
"Cc1ncsc1-c1ccc(CNC(=O)[C@@H]2C[C@H](O)CN2C(=O)[C@@H](NC(=O)CCOCCOc2ccc(Nc3ncc(C(F)(F)F)c(NCc4cccc(N(C)S(C)(=O)=O)c4)n3)cc2)C(C)(C)C)cc1 [Compound 106, (2S,4S)-1-((S)-3,3-dimethyl-2-(3-(2-(4-((4-((3-(N-methylmethylsulfonamido)benzyl)amino)-5-(trifluoromethyl)pyrimidin-2-yl)amino)phenoxy)ethoxy)propanamido)butanoyl)-4-hydroxy-N-(4-(4-methylthiazol-5-yl)benzyl)pyrrolidine-2-carboxamide]",11.2,0,,no Fak degradation,,,,
"N-(2-((2-(2,6-dioxopiperidin-3-yl)-1,3-dioxoisoindolin-4-yl)oxy)ethyl)-3-(3-(4-((4-((3-(N-methylmethylsulfonamido)benzyl)amino)-5-(trifluoromethyl)pyrimidin-2-yl)amino)phenoxy)propoxy)propanamide [Compound 108]",,,,,208,1.10,3.80,0.058
